Laboratory results reported in patent EP3033337B1, “SUBSTITUTED IMIDAZOLES AS N-TYPE CALCIUM CHANNEL BLOCKERS” (Janssen Pharmaceutica NV, priority 2013, dated 2015).

Key:
human N-type Ca channel [1] = molecular target: T1, human N-type Ca channel (Homo sapiens, UniProt Q00975); assay: Calcium influx assay (FDSS), KCl depolarization, Fluo8 dye; assay type: cell-based; set-up: host or cells: HEK 293; settings: HEK 293 cells expressing human N-type Ca channel; 100 mM KCl; read-out: N Type IC50 Data FDSS
T1 sequence (Q00975 whole entry): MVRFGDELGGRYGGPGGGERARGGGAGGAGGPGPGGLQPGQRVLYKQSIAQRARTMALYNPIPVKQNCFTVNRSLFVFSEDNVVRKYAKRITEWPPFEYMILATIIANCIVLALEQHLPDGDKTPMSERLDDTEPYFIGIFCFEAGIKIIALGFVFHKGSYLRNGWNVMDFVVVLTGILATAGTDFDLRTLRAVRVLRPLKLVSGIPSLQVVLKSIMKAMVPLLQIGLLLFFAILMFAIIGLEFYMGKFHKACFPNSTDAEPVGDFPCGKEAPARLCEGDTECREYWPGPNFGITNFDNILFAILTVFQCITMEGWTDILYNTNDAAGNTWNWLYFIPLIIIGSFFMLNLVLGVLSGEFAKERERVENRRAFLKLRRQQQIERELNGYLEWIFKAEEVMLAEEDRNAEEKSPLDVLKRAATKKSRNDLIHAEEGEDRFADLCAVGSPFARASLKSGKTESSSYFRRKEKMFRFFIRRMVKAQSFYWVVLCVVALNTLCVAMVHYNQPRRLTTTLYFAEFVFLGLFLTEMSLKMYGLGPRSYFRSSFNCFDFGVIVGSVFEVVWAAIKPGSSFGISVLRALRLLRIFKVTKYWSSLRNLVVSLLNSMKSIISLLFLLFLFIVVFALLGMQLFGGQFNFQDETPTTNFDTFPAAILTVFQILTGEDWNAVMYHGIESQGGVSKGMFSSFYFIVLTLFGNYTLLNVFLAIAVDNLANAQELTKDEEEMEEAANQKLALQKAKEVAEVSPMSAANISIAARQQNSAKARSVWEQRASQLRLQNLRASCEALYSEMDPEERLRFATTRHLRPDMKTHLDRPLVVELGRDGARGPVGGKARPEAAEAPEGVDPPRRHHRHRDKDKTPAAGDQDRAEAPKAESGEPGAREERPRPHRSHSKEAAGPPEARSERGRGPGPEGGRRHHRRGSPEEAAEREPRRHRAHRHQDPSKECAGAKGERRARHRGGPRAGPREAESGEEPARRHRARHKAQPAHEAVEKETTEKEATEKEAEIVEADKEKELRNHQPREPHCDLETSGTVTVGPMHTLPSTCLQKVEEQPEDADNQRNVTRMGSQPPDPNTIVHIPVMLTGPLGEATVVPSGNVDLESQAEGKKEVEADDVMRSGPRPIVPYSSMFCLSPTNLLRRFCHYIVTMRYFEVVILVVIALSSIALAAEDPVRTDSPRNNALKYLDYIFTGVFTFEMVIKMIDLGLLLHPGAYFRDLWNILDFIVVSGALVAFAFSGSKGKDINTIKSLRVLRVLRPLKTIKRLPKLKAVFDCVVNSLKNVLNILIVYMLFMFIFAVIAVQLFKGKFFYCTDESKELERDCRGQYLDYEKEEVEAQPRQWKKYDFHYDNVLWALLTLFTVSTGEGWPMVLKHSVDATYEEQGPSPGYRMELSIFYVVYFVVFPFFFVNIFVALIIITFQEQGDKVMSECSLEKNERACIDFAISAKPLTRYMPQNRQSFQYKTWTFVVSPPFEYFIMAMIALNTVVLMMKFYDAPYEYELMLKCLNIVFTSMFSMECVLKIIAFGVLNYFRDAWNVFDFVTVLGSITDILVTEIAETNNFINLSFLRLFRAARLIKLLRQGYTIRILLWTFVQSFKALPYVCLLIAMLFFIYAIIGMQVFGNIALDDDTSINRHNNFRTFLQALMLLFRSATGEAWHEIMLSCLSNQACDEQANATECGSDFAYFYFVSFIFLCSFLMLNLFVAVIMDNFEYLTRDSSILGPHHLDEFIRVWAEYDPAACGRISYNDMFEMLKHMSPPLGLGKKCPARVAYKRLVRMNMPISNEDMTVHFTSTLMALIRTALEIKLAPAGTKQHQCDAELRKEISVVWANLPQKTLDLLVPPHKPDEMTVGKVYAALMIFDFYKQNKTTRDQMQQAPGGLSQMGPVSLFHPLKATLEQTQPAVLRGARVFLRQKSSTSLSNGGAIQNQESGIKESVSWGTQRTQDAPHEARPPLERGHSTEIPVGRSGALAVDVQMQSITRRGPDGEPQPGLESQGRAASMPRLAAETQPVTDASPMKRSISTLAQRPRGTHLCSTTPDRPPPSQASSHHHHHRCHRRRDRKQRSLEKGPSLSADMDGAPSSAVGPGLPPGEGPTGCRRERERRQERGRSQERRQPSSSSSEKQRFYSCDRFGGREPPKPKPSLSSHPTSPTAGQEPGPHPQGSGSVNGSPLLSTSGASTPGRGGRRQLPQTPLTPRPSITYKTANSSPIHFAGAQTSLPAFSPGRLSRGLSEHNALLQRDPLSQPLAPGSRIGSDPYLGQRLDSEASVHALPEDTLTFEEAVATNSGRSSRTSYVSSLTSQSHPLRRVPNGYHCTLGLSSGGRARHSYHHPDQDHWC
T1 sequence (P54284 whole entry partner): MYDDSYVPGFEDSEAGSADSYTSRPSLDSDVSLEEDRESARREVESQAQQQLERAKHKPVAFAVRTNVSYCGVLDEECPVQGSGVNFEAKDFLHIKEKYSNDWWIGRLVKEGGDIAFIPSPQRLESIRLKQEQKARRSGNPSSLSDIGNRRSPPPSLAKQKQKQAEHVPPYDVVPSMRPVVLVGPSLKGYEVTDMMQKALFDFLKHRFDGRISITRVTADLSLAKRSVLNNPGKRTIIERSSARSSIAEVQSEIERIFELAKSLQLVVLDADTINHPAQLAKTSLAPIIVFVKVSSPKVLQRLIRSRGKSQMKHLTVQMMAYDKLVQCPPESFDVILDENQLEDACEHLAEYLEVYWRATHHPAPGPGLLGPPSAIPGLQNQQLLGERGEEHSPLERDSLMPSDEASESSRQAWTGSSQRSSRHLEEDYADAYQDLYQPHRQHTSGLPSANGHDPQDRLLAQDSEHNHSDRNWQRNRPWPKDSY
T1 sequence (P54289 25-956 partner limits assumed): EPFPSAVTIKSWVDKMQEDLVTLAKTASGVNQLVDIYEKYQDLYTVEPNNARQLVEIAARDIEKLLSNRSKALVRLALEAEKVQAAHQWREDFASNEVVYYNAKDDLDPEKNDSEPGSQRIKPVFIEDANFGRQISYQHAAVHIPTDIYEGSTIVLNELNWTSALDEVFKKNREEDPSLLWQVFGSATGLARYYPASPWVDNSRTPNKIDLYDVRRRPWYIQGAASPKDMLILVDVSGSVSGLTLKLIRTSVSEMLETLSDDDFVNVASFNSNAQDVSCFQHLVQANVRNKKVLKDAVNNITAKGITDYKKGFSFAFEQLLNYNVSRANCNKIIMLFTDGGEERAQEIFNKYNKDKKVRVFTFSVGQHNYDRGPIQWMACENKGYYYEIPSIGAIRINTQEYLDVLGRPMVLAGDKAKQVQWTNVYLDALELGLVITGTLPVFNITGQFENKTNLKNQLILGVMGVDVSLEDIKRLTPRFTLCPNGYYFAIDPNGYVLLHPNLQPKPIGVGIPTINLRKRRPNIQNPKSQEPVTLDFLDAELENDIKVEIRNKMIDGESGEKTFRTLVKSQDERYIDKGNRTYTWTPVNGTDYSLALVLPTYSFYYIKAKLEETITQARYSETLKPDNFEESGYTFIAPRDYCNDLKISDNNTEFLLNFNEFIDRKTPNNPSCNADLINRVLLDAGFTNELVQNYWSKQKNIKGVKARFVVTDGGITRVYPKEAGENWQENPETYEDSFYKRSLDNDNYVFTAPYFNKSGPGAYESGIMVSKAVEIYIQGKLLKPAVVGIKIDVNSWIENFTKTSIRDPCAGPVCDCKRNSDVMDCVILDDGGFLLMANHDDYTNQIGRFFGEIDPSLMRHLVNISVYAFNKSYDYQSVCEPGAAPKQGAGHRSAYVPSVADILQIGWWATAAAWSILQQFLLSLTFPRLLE
T1 sequence (P54289 957-1103 partner limits assumed): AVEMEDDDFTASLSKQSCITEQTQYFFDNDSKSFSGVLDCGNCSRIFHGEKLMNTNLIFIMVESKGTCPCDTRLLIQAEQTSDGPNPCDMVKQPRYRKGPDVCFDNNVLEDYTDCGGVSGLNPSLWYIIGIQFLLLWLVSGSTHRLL
Procedure: All cell culture reagents were procured from HyClone and other reagents were from Fisher. Recombinant HEK 293 cells expressing human N-type Ca channel (Millipore) were maintained in DMEM F12 containing 10% FBS and selection antibiotics at 37 °C in 5% CO2.
Cells were incubated at 30 °C in 5% CO2 overnight. The medium was removed and cells were loaded with Fluo8 dye (AAT Bioquest) at 37 °C and 30 °C, 30 min each in darkness. Cells were washed four times with wash buffer (16 mM Herep pH 7.2, 2 mM CaCl2, 1 mM MgCl2, 5 mM glucose, 140 mM choline chloride and 2 mM KCl) leaving 15 µL buffer after the last wash. Compounds of Formula (I), serially diluted, were added to the cell plate. The plates were incubated in darkness for 15 min. Cells were depolarized with 100 mM KCl and Ca influx was measured.

human N-type Ca channel [2] = molecular target: T1, human N-type Ca channel; assay: Electrophysiological response, QPatch (depolarization -80 mV to +20 mV); settings: for inhibition at 10 µM: read-out: Qpatch Pulse=1 (percent inhibition); for N Type IC50 Data Qpatch Pulse=1 / N Type IC50 Data Qpatch Pulse=15: concentration range 0.01-0.3 µM
Procedure: The recombinant cell line described above was used in the measurement of electrophysiological properties with QPatch (Sophion). Cells were maintained in culture as mentioned above. Prior to the experiment, the flasks were moved to 30 °C and incubated for 48-72 hrs. On the day of assaying, cells were detached and harvested. The cell pellet was re-suspended in SMF4HEK (HyClone)/25mM HEPS at 2-5 million/ mL and placed on the QStirrer of the QPatch for 30-60 min prior to the start of the assay. […] Microtiter-Plate/Reference Buffer contained 140 mM TEA-Cl, 10mM BaCl2, 0.8 mM MgCl2, 10 mM HEPES pH ∼7.4 adjusted with TEA-OH/HCl, and ∼300mOsm. Cells were transferred to a QPatch 48 plate and gigaseal was formed. The plate was perfused with intracellular and extracellular buffer. […] In brief, cells were depolarized from resting potential of -80 mV to +20 mV and current was recorded. Data was plotted as percent inhibition vs concentration of the compound and IC50 values were generated using Graphpad Prism non-linear regression analysis.

[3] = N Type IC50 Data Qpatch Pulse=15, Pulse=15, concentration range 0.3-10 µM
[4] = N Type IC50 Data Qpatch Pulse=1, Pulse=1, concentration range 0.01-1 µM
[5] = read-out: N Type IC50 Data Qpatch Pulse=15, Pulse=15, concentration range 0.01-1 µM
[6] = N Type IC50 Data Qpatch Pulse=1, Pulse=1, concentration range 0.3-10 µM
[7] = N Type IC50 Data Qpatch Pulse=15, Pulse=15, concentration range 0.01-1 µM

COc1cnccc1-c1nc(C2CC(C)(C)OC(C)(C)C2)cn1-c1ccc(F)cc1 [Compound 2, 4-(1-(4-fluorophenyl)-4-(2,2,6,6 tetramethyltetrahydro-2H-pyran-4-yl)-1H-imidazol-2-yl)-3-methoxypyridine]
IC50 (human N-type Ca channel [1]): 128 nM | IC50 (human N-type Ca channel [2]; [3]): 6200 nM

CCOc1ccc(-n2cc(C3CC(C)(C)OC(C)(C)C3)nc2-c2ccncc2OC)cc1 [Compound 3, 4-(1-(4-ethoxyphenyl)-4-(2,2,6,6-tetramethyltetrahydro-2H-pyran-4-yl)-1H-imidazol-2-yl)-3-methoxypyridine]
IC50 (human N-type Ca channel [1]): 376 nM | IC50 (human N-type Ca channel [2]; [4]): 830 nM | IC50 (human N-type Ca channel [2]; [5]): > 1000 nM

COc1ccccc1-c1nc(C2CC(C)(C)OC(C)(C)C2)cn1-c1ccc(F)cc1 [Compound 4, 1-(4-fluorophenyl)-2-(2-methoxyphenyl)-4-(2,2,6,6-tetramethyltetrahydro-2H-pyran-4-yl)-1H-imidazole]
IC50 (human N-type Ca channel [1]): 17 nM | IC50 (human N-type Ca channel [2]; [3]): 1060 nM

COc1ccccc1-c1nc(C2CC(C)(C)OC(C)(C)C2)cn1-c1ccc(C)nc1 [Compound 5, 5-(2-(2-methoxyphenyl)-4-(2,2,6,6-tetramethyltetrahydro-2H-pyran-4-yl)-1H-imidazol-1-yl)-2-methylpyridine]
IC50 (human N-type Ca channel [1]): 191 nM | IC50 (human N-type Ca channel [2]; [6]): 5900 nM

COc1ccccc1-c1nc(C2CC(C)(C)OC(C)(C)C2)cn1-c1ccc(C)cn1 [Compound 6, 2-(2-(2-methoxyphenyl)-4-(2,2,6,6-tetramethyltetrahydro-2H-pyran-4-yl)-1H-imidazol-1-yl)-5-methylpyridine]
IC50 (human N-type Ca channel [1]): 739 nM

COc1ccc(-n2cc(C3CC(C)(C)OC(C)(C)C3)nc2-c2ccccc2OC)cc1 [Compound 7, 2-(2-methoxyphenyl)-1-(4-methoxyphenyl)-4-(2,2,6,6-tetramethyltetrahydro-2H-pyran-4-yl)-1H-imidazole]
IC50 (human N-type Ca channel [1]): 113 nM | IC50 (human N-type Ca channel [2]; [6]): 1170 nM | IC50 (human N-type Ca channel [2]; [3]): 680 nM

COc1ccccc1-c1nc(C2CC(C)(C)OC(C)(C)C2)cn1-c1cnc(C)nc1 [Compound 8, 5-(2-(2-methoxyphenyl)-4-(2,2,6,6-tetramethyltetrahydro-2H-pyran-4-yl)-1H-imidazol-1-yl)-2-mithylpyrimidine]
IC50 (human N-type Ca channel [1]): > 10000 nM | IC50 (human N-type Ca channel [2]; [4]): 508 nM | IC50 (human N-type Ca channel [2]; [7]): > 1000 nM

COc1ncccc1-c1nc(C2CC(C)(C)OC(C)(C)C2)cn1Cc1cccc(Cl)c1 [Compound 9, 3-(1-(3-chlorobenzyl)-4-(2,2,6,6-tetramethyltetrahydro-2H-pyran-4-yl)-1H-imidazol-2-yl)-2-methoxypyridine]
IC50 (human N-type Ca channel [1]): 793 nM

COc1cccnc1-c1nc(C2CC(C)(C)OC(C)(C)C2)cn1-c1ccc(C#N)cc1 [Compound 12, 4-(2-(3-methoxypyridin-2-yl)-4-(2,2,6,6-tetramethyltetrahydro-2H-pyran-4-yl)-1H-imidazol-1-yl)benzonitrile]
IC50 (human N-type Ca channel [1]): 630 nM | inhibition at 10 µM (human N-type Ca channel [2]): 28%

COc1cnccc1-c1nc(C2CC(C)(C)OC(C)(C)C2)cn1-c1ccc(Cl)c(F)c1 [Compound 13, 4-(1-(4-chloro-3-fluorophenyl)-4-(2,2,6,6-tetramethyltetrahydro-2H-pyran-4-yl)-1H-imidazol-2-yl)-3-methoxypyridine]
IC50 (human N-type Ca channel [1]): 200 nM | IC50 (human N-type Ca channel [2]; [4]): > 1000 nM | IC50 (human N-type Ca channel [2]; [5]): > 1000 nM

COc1ccccc1-c1nc(C2CC(C)(C)OC(C)(C)C2)cn1-c1ccc(Cl)c(C#N)c1 [Compound 14, 2-chloro-5-(2-(2-methoxyphenyl)-4-(2,2,6,6-tetramethyltetrahydro-2H-pyran-4-yl)-1H-imidazol-1-yl)benzonitrile]
IC50 (human N-type Ca channel [1]): 2700 nM | IC50 (human N-type Ca channel [2]; [4]): 266 nM | IC50 (human N-type Ca channel [2]; [7]): > 1000 nM

COc1ncccc1-c1nc(C2CC(C)(C)OC(C)(C)C2)cn1-c1ccc(C#N)c(C)c1 [Compound 15, 4-(2-(2-methoxypyridin-3-yl)-4-(2,2,6,6-tetramethyltetrahydro-2H-pyran-4-yl)-1H-imidazol-1-yl)-2-methylbenzonitrile]
IC50 (human N-type Ca channel [1]): 256 nM | N Type IC50 Data Qpatch Pulse=1 (human N-type Ca channel [2]): poor fit(0.01-0.3 µM) | N Type IC50 Data Qpatch Pulse=15 (human N-type Ca channel [2]; Pulse=15): poor fit(0.01-0.3 µM)

COc1ncccc1-c1nc(C2CC(C)(C)OC(C)(C)C2)cn1-c1ccc(F)c(F)c1F [Compound 16, 2-methoxy-3-(4-(2,2,6,6-tetramethyltetrahydro-2H-pyran-4-yl)-1-(2,3,4-trifluorophenyl)-1H-imidazol-2-yl)pyridine]
IC50 (human N-type Ca channel [1]): 359 nM | N Type IC50 Data Qpatch Pulse=1 (human N-type Ca channel [2]): poor fit(0.01-0.3 µM) | N Type IC50 Data Qpatch Pulse=15 (human N-type Ca channel [2]; Pulse=15): poor fit(0.01-0.3µM)

COc1cccnc1-c1nc(C2CC(C)(C)OC(C)(C)C2)cn1-c1ccc(F)c(Cl)c1 [Compound 17, 2-(1-(3-chloro-4-fluorophenyl)-4-(2,2,6,6-tetramethyltetrahydro-2H-pyran-4-yl)-1H-imidazol-2-yl)-3-methoxypyridine]
IC50 (human N-type Ca channel [1]): 591 nM | IC50 (human N-type Ca channel [2]; [6]): 4400 nM | IC50 (human N-type Ca channel [2]; [3]): 5200 nM

COc1cnccc1-c1nc(C2CC(C)(C)OC(C)(C)C2)cn1-c1ccc(F)c(Cl)c1 [Compound 18, 4-(1-(3-chloro-4-fluorophenyl)-4-(2,2,6,6-tetramethyltetrahydro-2H-pyran-4-yl)-1H-imidazol-2-yl)-3-methoxypyridine]
IC50 (human N-type Ca channel [1]): 108 nM | IC50 (human N-type Ca channel [2]; [4]): 694 nM | IC50 (human N-type Ca channel [2]; [7]): 376 nM

COc1cccnc1-c1nc(C2CC(C)(C)OC(C)(C)C2)cn1-c1ccc(Cl)c(F)c1 [Compound 19, 2-(1-(4-chloro-3-fluorophenyl)-4-(2,2,6,6-tetramethyltetrahydro-2H-pyran-4-yl)-1H-imidazol-2-yl)-3-methoxypyridine]
IC50 (human N-type Ca channel [1]): 263 nM | IC50 (human N-type Ca channel [2]; [4]): 966 nM | inhibition at 1 µM (human N-type Ca channel [2]; read-out: Qpatch Pulse=15 (percent inhibition)): 28%

COc1ccncc1-c1nc(C2CC(C)(C)OC(C)(C)C2)cn1-c1ccc(F)c(Cl)c1 [Compound 20, 3-(1-(3-chloro-4-fluorophenyl)-4-(2,2,6,6-tetramethyltetrahydro-2H-pyran-4-yl)-1H-imidazol-2-yl)-4-methoxypyridine]
IC50 (human N-type Ca channel [1]): 1060 nM | IC50 (human N-type Ca channel [2]; [4]): > 1000 nM | IC50 (human N-type Ca channel [2]; [5]): > 1000 nM

COc1ccccc1-c1nc(C2CC(C)(C)OC(C)(C)C2)cn1-c1ccc(C#N)c(C)c1 [Compound 21, 4-(2-(2-methoxyphenyl)-4-(2,2,6,6-tetramethyltetrahydro-2H-pyran-4-yl)-1H-imidazol-1-yl)-2-methylbenzonitrile]
IC50 (human N-type Ca channel [1]): 119 nM | IC50 (human N-type Ca channel [2]; [4]): 639 nM

COc1ccccc1-c1nc(C2CC(C)(C)OC(C)(C)C2)cn1-c1ccc(C)c(C#N)c1 [Compound 22, 5-(2-(2-methoxyphenyl)-4-(2,2,6,6-tetramethyltetrahydro-2H-pyran-4-yl)-1H-imidazol-1-yl)-2-methylbenzonitrile]
IC50 (human N-type Ca channel [1]): 75 nM | IC50 (human N-type Ca channel [2]; [4]): 590 nM | IC50 (human N-type Ca channel [2]; [7]): 847 nM

COc1ccc(-n2cc(C3CC(C)(C)OC(C)(C)C3)nc2-c2cccnc2OC)cc1F [Compound 23, 3-(1-(3-fluoro-4-methoxyphenyl)-4-(2,2,6,6-tetramethyltetrahydro-2H-pyran-4-yl)-1H-imidazol-2-yl)-2-methoxypyridine]
IC50 (human N-type Ca channel [1]): 310 nM | IC50 (human N-type Ca channel [2]; [5]): > 1000 nM

COc1cc(-n2cc(C3CC(C)(C)OC(C)(C)C3)nc2-c2cccnc2OC)ccc1F [Compound 24, 3-(1-(4-fluoro-3-methoxyphenyl)-4-(2,2,6,6-tetramethyltetrahydro-2H-pyran-4-yl)-1H-imidazol-2-yl)-2-methoxypyridine]
IC50 (human N-type Ca channel [1]): 7150 nM | IC50 (human N-type Ca channel [2]; [5]): > 1000 nM

COc1ncccc1-c1nc(C2CC(C)(C)OC(C)(C)C2)cn1-c1ccc(C)c(C#N)c1 [Compound 25, 5-(2-(2-methoxypyridin-3-yl)-4-(2,2,6,6-tetramethyltetrahydro-2H-pyran-4-yl)-1H-imidazol-1-yl)-2-methylbenzonitrile]
IC50 (human N-type Ca channel [1]): 818 nM | IC50 (human N-type Ca channel [2]; [4]): > 1000 nM | IC50 (human N-type Ca channel [2]; [5]): > 1000 nM

COc1cccnc1-c1nc(C2CC(C)(C)OC(C)(C)C2)cn1-c1ccc(F)c(F)c1 [Compound 35, 2-(1-(3,4-difluorophenyl)-4-(2,2,6,6-tetramethyltetrahydro-2H-pyran-4-yl)-1H-imidazol-2-yl)-3-methoxypyridine]
IC50 (human N-type Ca channel [1]): 838 nM

COc1cccnc1-c1nc(C2CC(C)(C)OC(C)(C)C2)cn1-c1ccc(Cl)cc1 [Compound 67, 2-(1-(4-chlorophenyl)-4-(2,2,6,6-tetramethyltetrahydro-2H-pyran-4-yl)-1H-imidazol-2-yl)-3-methoxypyridine]
IC50 (human N-type Ca channel [1]): 166 nM

COc1ccccc1-c1nc(C2CC(C)(C)OC(C)(C)C2)cn1Cc1cncnc1 [Compound 100, 5-((2-(2-methoxyphenyl) - 4-(2,2,6,6-tetramethyltetrahydro-2H-pyran-4-yl)-1H-imidazol-1-yl)methyl) pyrimidine]
IC50 (human N-type Ca channel [1]): 10000 nM

COc1cccnc1-c1nc(C2(O)CC(C)(C)OC(C)(C)C2)cn1-c1ccc(Cl)cc1 [Compound 104, 4-(1-(4-chlorophenyl)-2-(3-methoxypyridin-2-yl)-1H-imidazol-4-yl)-2,2,6,6-tetramethyltetrahydro-2H-pyran-4-ol]
IC50 (human N-type Ca channel [1]): 464 nM

COc1ncccc1-c1nc(C2(O)CC(C)(C)OC(C)(C)C2)cn1-c1ccc(C#N)cc1 [Compound 115, 4-(4-(4-hydroxy-2,2,6,6-tetramethyltetrahydro-2H-pyran-4-yl)-2-(2-methoxypyridin-3-yl)-1H-imidazol-1-yl)benzonitrite]
IC50 (human N-type Ca channel [1]): 731 nM

COc1ccccc1-c1nc(C2=CC(C)(C)OC(C)(C)C2)cn1-c1ccc(C#N)c(F)c1 [Compound 126]
inhibition at 10 µM (human N-type Ca channel [2]): 29%
